Results from patent publication US11677091B2, “Use of quaternary ammonium salt-type anthraquinone-based active material and salt cavern organic aqueous redox flow battery” (CHINA SALT JINTAN CO., LTD., priority 2020, dated 2023).

Assay: Electrochemical characterization of the active material (rotating disk electrode, diffusion coefficient, charge transfer rate constant)
Format: physicochemical
Conditions: on a graphite felt electrode
Description: FIG. 2 to FIG. 9 show the characterization of electrochemical performances of the prepared active material.

With `C[N+](C)(C)CCCOc1cccc2c1C(=O)c1c(OCCC[N+](C)(C)C)cccc1C2=O` [Embodiment 1] the “charge transfer rate constant” value was 0.00302 cm/s and the diffusion coefficient was 3.94×10^−6 cm^2/s.
